The source of these data is patent US6191282A, “Substituted 5-membered ring heterocycles comprising a bicyclic or tricyclic group their preparation and their use” (Hoechst Marion Roussel, priority 1993, dated 2001).

Each structure is given as a SMILES string. Where a name gives a salt, the structure may show the parent alone. Read-outs that look alike come from different tables or passages of the source.

In test [1] the test system is gel-filtered human thrombocytes. Briefly: Inhibition of the aggregation of gel-filtered human thrombocytes following stimulation with ADP or thrombin (Test method 1). The format is cell-based. The conditions noted are these: 1 mg/ml fibrinogen, 37° C., GFP from 2-4 donors. On the procedure:
As a functional test, measurement is made of the inhibition of the aggregation of gel-filtered human thrombocytes, following stimulation with ADP or thrombin, by the compounds according to the invention.
For this purpose, human thrombocytes were isolated from platelet-rich plasma (PRP) by gel filtration on Sepharose 2 B. The resulting suspension of gel-filtered platelets (GFP), which contained 3×10^8 platelets/ml, was activated in the presence of 1 mg/ml of fibrinogen either with 10 μM ADP or with 0.1 U/ml thrombin, and stirred in an aggregometer (PAP 4, Biodata, Hatboro, Penna., USA) at 37° C. and at 1000 revolutions per minute. The maximum increase in the translucency is taken as a measure of the aggregation. The test substances were added to the GFP at 37° C. and 2 min before activating with ADP or thrombin.

Test [2] has as its target T1, fibrinogen receptor (glycoprotein IIb/IIIa) on intact, gel-filtered human thrombocytes (Homo sapiens, UniProt P05106+P08514).
T1 construct: endogenous in cells; host or cells: human thrombocytes isolated from platelet-rich plasma by gel filtration on Sepharose 2 B
Briefly: Inhibition of 125I-fibrinogen binding to its receptor (glycoprotein IIb/IIIa) on intact, gel-filtered human thrombocytes (Test method 2). Conditions: intact GFP, 10 μM ADP, 40 nmol/l 125I-fibrinogen, room temperature, 30 min; read-out: Ki, inhibition of the binding of 125I-fibrinogen, ADP-stimulated. On the procedure: The inhibition of the binding of fibrinogen to its receptor (glycoprotein IIb/IIIa) by the compounds according to the invention is tested on intact, gel-filtered human thrombocytes.
For this purpose, human thrombocytes were isolated from platelet-rich plasma (PRP) by gel filtration on Sepharose 2 B. A suspension of gel-filtered platelets (GFP) was obtained which contained 4×10^8platelets/ml. […] Aliquots of 100 μl were then added onto 20% sucrose, and the platelets were sedimented by being centrifuged for 2 minutes at 12,000 revolutions per minute. The supernatant was decanted carefully and completely and the remaining sediment was measured in a gamma counter. The specific binding was ascertained by subtracting the binding in the presence of an excess (10 μM) of unlabelled fibrinogen from the total bound radioactivity.

Test [3] has as its target T2, isolated fibrinogen receptor (glycoprotein IIb/IIIa) (Homo sapiens, UniProt P05106+P08514).
T2 construct: isolated from human thrombocytes and immobilized in microtitre plates; from tissue; host or cells: human thrombocytes (platelets), receptor isolated
Briefly: Inhibition of 125I-fibrinogen binding to the isolated, immobilized receptor (glycoprotein IIb/IIIa) (Test method 3). Conditions: isolated receptor immobilized in microtitre plates. On the procedure:
The inhibition of the binding of fibrinogen to its receptor (glycoprotein IIb/IIIa) which is brought about by the compounds according to the invention is tested on the isolated receptor, which was isolated from human thrombocytes and immobilized in microtitre plates.

Where [4] appears, read: Homo sapiens, ADP-stimulated (10 μM ADP), read-out: IC50, inhibition of thrombocyte aggregation, ADP-stimulated.
[5] abbreviates: Homo sapiens, Thrombin-stimulated (0.1 U/ml thrombin), read-out: IC50, inhibition of thrombocyte aggregation, Thrombin-stimulated.
The mark [6] stands for this setting: read-out: Ki, inhibition of the binding of 125I-fibrinogen, ADP-stimulated.
The mark [7] stands for this setting: ADP-stimulated (10 μM ADP), read-out: IC50, inhibition of thrombocyte aggregation, ADP-stimulated.
[8] abbreviates: Thrombin-stimulated (0.1 U/ml thrombin), read-out: IC50, inhibition of thrombocyte aggregation, Thrombin-stimulated.
The mark [9] stands for this setting: Ki, inhibition of the binding of 125I-fibrinogen, ADP-stimulated.

T2 sequence (P08514 32-887 limits assumed): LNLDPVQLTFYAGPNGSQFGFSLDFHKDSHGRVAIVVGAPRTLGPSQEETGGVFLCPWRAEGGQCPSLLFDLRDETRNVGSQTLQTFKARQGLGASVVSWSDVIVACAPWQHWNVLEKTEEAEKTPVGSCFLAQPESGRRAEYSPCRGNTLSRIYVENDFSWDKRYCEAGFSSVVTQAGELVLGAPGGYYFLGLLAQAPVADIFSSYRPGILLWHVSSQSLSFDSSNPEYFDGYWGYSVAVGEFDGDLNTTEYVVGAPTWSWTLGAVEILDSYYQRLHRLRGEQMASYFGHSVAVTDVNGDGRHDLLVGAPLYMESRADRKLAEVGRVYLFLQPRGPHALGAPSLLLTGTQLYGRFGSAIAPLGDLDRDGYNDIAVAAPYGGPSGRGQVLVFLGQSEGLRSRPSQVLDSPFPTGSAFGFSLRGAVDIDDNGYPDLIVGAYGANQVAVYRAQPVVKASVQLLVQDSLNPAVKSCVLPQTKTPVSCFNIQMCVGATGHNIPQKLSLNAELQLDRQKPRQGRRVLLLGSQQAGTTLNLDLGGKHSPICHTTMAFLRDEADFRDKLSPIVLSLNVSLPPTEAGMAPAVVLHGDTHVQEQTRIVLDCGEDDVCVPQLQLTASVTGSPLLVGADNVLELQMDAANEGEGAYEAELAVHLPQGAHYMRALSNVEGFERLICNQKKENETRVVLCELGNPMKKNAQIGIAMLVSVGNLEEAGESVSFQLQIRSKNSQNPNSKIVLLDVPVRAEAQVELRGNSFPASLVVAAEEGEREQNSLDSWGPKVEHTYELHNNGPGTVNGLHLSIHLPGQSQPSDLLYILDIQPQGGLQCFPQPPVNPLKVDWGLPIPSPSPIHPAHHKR
T2 sequence (P08514 891-1039 partner limits assumed): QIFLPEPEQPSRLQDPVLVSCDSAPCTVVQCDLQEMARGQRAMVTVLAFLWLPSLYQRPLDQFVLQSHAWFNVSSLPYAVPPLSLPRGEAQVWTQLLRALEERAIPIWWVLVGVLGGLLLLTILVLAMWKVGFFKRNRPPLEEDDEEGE
T2 sequence (P05106 27-788): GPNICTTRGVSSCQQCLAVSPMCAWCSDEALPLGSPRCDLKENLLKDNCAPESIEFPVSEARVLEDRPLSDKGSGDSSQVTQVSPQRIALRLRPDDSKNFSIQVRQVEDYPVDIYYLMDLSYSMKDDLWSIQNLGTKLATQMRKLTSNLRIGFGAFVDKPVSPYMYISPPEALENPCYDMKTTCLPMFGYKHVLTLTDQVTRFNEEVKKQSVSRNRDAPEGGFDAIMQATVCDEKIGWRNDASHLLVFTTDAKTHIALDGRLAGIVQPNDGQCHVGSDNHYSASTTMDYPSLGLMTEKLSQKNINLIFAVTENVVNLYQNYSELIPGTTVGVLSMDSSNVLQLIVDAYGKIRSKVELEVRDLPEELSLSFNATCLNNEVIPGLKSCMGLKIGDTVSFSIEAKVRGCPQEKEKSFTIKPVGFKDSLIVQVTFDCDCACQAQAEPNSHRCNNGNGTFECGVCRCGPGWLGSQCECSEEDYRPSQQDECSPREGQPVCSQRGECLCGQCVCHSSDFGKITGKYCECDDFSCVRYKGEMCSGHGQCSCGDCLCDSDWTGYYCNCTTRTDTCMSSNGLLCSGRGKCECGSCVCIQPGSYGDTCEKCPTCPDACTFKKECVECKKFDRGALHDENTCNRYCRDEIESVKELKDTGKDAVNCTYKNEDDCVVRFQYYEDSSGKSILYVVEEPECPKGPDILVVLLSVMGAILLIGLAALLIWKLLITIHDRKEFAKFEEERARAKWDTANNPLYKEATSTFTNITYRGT
T1 sequence (P08514 32-887 limits assumed): as the sequence (P08514 32-887 limits assumed) above
T1 sequence (P08514 891-1039 partner limits assumed): as the sequence (P08514 891-1039 partner limits assumed) above
T1 sequence (P05106 27-788): as the sequence (P05106 27-788) above

What is called IC50 is the concentration needed to halve the response being measured. As a reminder, the Ki is a dissociation constant, usually derived from enzyme kinetics or from competition with a known ligand. Consider `CC1(c2ccc(C(=N)N)cc2)NC(=O)N(CC(=O)N[C@@H](CC(=O)O)c2ccccc2)C1=O` (stereo partly drawn) [Example 56, (S)-3-(((R,S)-4-(4-(aminoiminomethyl)phenyl)-4-methyl-2,5-dioxoimidazolidin-1-yl)acetylamino)-3-phenylpropionic acid hydrochloride], for which the figures for the IC50 in test [1] (setting [4]) and in test [1] (setting [5]) were 100 nM and 60 nM, respectively. For the same compound, the figures for the Ki in test [2] and in test [3] (setting [6]) were 21.8 nM and 0.486 nM, respectively.
For the compound `CC1(c2ccc(C(=N)N)cc2)NC(=O)N(CC(=O)NC(CC(=O)O)c2cccc([N+](=O)[O-])c2)C1=O` (racemic) [Example 39, (R,S)-3-(((R,S)-4-(4-(Aminoiminomethyl)phenyl)-4-methyl-2,5-dioxoimidazolidin-1-yl)acetylamino)-3-(3-nitrophenyl)propionic acid], the IC50 in test [1] (setting [4]) stood at 80 nM; in test [1] (setting [5]), 150 nM. The Ki in test [3] (setting [6]) was 0.948 nM.
Taken in the same sequence, the figures for `CC1(c2ccc(C(=N)N)cc2)NC(=O)N(CC(=O)NC(CC(=O)O)c2ccccc2)C1=O` (racemic) [Example 13, (R,S)-3-(((R,S)-4-(4-(Aminoiminomethyl)phenyl)-4-methyl-2,5-dioxoimidazolidin-1-yl)acetylamino)-3-phenylpropionic acid hydrochloride] were 200 nM, 200 nM and 0.748 nM.
Consider `CC1(c2ccc(C(=N)N)cc2)NC(=O)N(CC(=O)N[C@@H](CC(=O)O)C(=O)N[C@H](C(=O)O)c2ccccc2)C1=O` (stereo partly drawn) [Example 1, ((R,S)-4-(4-(Aminoiminomethyl)phenyl)-4-methyl-2,5-dioxoimidazolidin-1-yl)-acetyl-L-aspartyl-L-phenylglycine], for which the IC50 was determined as 40 nM in test [1] (setting [4]) and 50 nM in test [1] (setting [5]). Moreover, the values for the Ki in test [2] and in test [3] (setting [6]) were 13.2 nM and 0.172 nM, respectively.
Consider `CC1(c2ccc(C(=N)N)cc2)NC(=O)N(CC(=O)NC(CC(=O)O)c2ccc(-c3ccccc3)cc2)C1=O` (racemic) [Example 46, (R,S)-3-(((R,S)-4-(4-Aminoiminomethyl)phenyl)-4-methyl-2,5-dioxoimidazolidin-1-yl)acetylamino)-3-(4-phenylphenyl)propionic acid], for which the IC50 in test [1] (setting [4]) and in test [1] (setting [5]) was 100 nM in each case. Moreover, in test [3] (setting [6]), the Ki is 1.23 nM.
Turning to `CC1(c2ccc(C(=N)N)cc2)NC(=O)N(CC(=O)N[C@@H](CC(=O)O)c2ccccc2)C1=O` (single isomer, unassigned) [Example 57, (S)-3-(((S or R)-4-(4-Aminoiminomethyl)phenyl)-4-methyl-2,5-dioxoimidazolidin-1-yl)acetylamino)-3-phenylpropionic acid], the IC50 in test [1] (setting [7]) turned out to be 6000 nM; in test [1] (setting [8]) it was 5000 nM. The Ki in test [2] was determined as 1970 nM; in test [3] (setting [6]) it was 37.3 nM.
The matching figures for `CC1(c2ccc(C(=N)N)cc2)NC(=O)N(CC(=O)N[C@@H](CC(=O)O)c2ccccc2)C1=O` (single isomer, unassigned) [Example 58, (S)-3-(((R or S)-4-(4-Aminoiminomethyl)phenyl)-4-methyl-2,5-dioxoimidazolidin-1-yl)acetylamino)-3-phenylpropionic acid]: 20 nM, 25 nM, 9.2 nM and 0.172 nM.
As for `CCC1(c2ccc(C(=N)N)cc2)NC(=O)N(CC(=O)N[C@@H](CC(=O)O)C(=O)N[C@H](C(=O)O)c2ccccc2)C1=O` (stereo partly drawn) [Example 27, ((R,S)-4-(4-(Aminoiminomethyl)phenyl)-4-ethyl-2,5-dioxoimidazolidin-1-yl)acetyl-L-aspartyl-L-phenylglycine], the values for the IC50 in test [1] (setting [4]) and in test [1] (setting [5]) were 25 nM and 40 nM, respectively. Besides, the Ki in test [3] (setting [6]) is 0.107 nM.
`CC1(c2ccc(C(=N)N)cc2)NC(=O)N(CC(=O)N[C@@H](CC(=O)O)C(=O)N[C@H](C(=O)O)c2ccccc2)C1=O` (single isomer, unassigned) [Example 21, ((S or R)-4-(4-(Aminoiminomethyl)phenyl)-4-methyl-2,5-dioxoimidazolidin-1-yl)acetyl-L-aspartyl-L-phenylglycine]: the IC50 is 800 nM in test [1] (setting [7]) and 500 nM in test [1] (setting [8]). Besides, in test [3] (setting [9]), affinity was put at a Ki of 1.9 nM.
As for `CC1(c2ccc(C(=N)N)cc2)C(=O)N(CC(=O)N[C@@H](CC(=O)O)C(=O)N[C@H](C(=O)O)c2ccccc2)C(=O)N1Cc1ccccc1` (stereo partly shown) [Example 25], the IC50 stood at 30 nM in test [1] (setting [4]) and 50 nM in test [1] (setting [5]). Besides, the Ki in test [3] (setting [6]) is 0.175 nM.
As to `CC1(c2ccc(C(=N)N)cc2)NC(=O)N(CC(=O)N[C@@H](CC(=O)O)C(=O)N[C@H](C(=O)O)c2ccccc2)C1=O` (single isomer, unassigned) [Example 22, ((R or S)-4-(4-(Aminoiminomethyl)phenyl)-4-methyl-2,5-dioxoimidazolidin-1-yl)acetyl-L-aspartyl-L-phenylglycine], the results for the IC50 in test [1] (setting [7]) and in test [1] (setting [8]) were 25 nM and 50 nM, respectively. In test [3] (setting [9]), the inhibitory constant (Ki) amounted to 0.15 nM.
